Experimental data reported in patent publication US20260217701A1, “SELECTIVE BET INHIBITORS AND USES THEREOF” (Tay Therapeutics Limited, priority 2022, published 2026).
Several values for one entry are separate records, joined by “and”; a condition that tells them apart may be missing. Identical values can stand only once.

Experiment: Dog PK study #3 (Compound A PO once daily 5 days, 5/10/20 mg/kg; PK, body weight, hematology)
Assay type: in vivo, beagle dogs
Set-up: Plasma Concentration: unit not given here
Protocol: For the third dog pharmacokinetic study, three solutions of different concentrations of Compound A were prepared in 5% DMSO/15% PEG-400/80% (10% VE-TPGS) as outlined in Table 2E. The Compound A solutions were administered to animals orally (PO) once daily over a five-day period. Body weight was recorded prior to dosing, and detailed clinical observations were made prior to dosing and throughout the study, as needed.
Animals were divided into Day 1 and Day 5 sample collection groups, with animals in the Day 1 collection group having blood samples taken prior to dosing and at 0.25, 0.5, 1, 2, 4, 8, and 24 hours after dosing on day 1. Animals in the Day 5 collection group having blood samples taken prior to dosing and at 0.25, 0.5, 1, 2, 4, 8, and 24 hours after dosing on day 5. Study groups are outlined in Table 3D.
Blood samples (~0.3 mL) were collected on day according to the following schedule (0.25, 0.5, 1, 2, 4, 8, and 24 h) after day 5 administration of Compound A by venipuncture of peripheral veins except for the dosing vein, and EDTA-K2 was used as anticoagulant. Within 30 minutes of collection, the samples were centrifuged at approximately 2000 times g-force for 10 minutes at 4° C. to obtain blood plasma. The plasma samples were immediately divided into two aliquots (~75 μL each), transferred to a cryogenic vial, and stored in a freezer at −75±15° C. prior to analysis.
The concentration of Compound A in the blood plasma was determined through LC-MS as previously described. Briefly, the experiments were conducted on a DMPK-LCMS-14-SMBA Triple Quad 6500 Plus instrument with an ACQUITY UPLC BEH C18 1.7 μm (50×2.1 mm) column. The matrix was male beagle dog plasma potassium (K2) EDTA A gradient of 95% water (0.1% formic acid and 2 mM HCOONH4)/95% acetonitrile (0.1% formic acid and 2 mM HCOONH4) was used as the mobile phase. The sample flow rate was 0.6 mL/min.
The samples were then vortex-mixed for 10 minutes at 800 rpm and centrifuged for 15 minutes at 3220×g at 4° C. 50 μL aliquots of supernatant were transferred to a clean 96-well plate and centrifuged for 5 minutes at 3220×g at 4° C. Samples were then injected into the LC/MS/MS system for quantitative analysis.
The gathered data were used for pharmacokinetic calculations using T1/2, CO, AUClast, AUCinf, MRTinf, Cl, Vss, and Number of Points for Regression as parameters.
The cell composition (hematology) of blood samples was analyzed at day 5. Analyses identified the total number of white blood cells, neutrophils, lymphocytes, monocytes, eosinophils, basophils, and platelets in collected samples.

[1] = Day 1, 20 mg/kg dose PO, individual animals
[2] = Day 1, Group 1, individual animals
[3] = Day 1, Group 2, individual animals
[4] = Day 1, Group 3, individual animals
[5] = Day 2, Group 1, individual animals
[6] = Day 2, Group 2, individual animals
[7] = Day 2, Group 3, individual animals
[8] = Day 3, Group 1, individual animals
[9] = Day 3, Group 2, individual animals
[10] = Day 3, Group 3, individual animals
[11] = Day 4, Group 1, individual animals
[12] = Day 4, Group 2, individual animals
[13] = Day 4, Group 3, individual animals
[14] = Day 5, 5 mg/kg dose PO, individual animals

Cn1cc(-c2ccccc2)c(-c2cn(C)c(=O)c3[nH]c(-c4cnn(C(F)(F)F)c4)cc23)cc1=O [Compound A, 6-methyl-4-(1-methyl-2-oxo-5-phenyl-1,2-dihydropyridin-4-yl)-2-(1-(trifluoromethyl)-1H-pyrazol-4-yl)-1,6-dihydro-7H-pyrrolo[2,3-c]pyridin-7-one]
Cmax [1]: 6000 ng/mL
MRT0-inf [1]: 18.1 h
MRT0-last [1]: 10.1 h
Tlast [1]: 24.0 h
T½ [1]: 5.64 h and 11.7 h
Vz_F [1]: 3.09 L/kg and 2.89 L/kg
AUC0-last (Day 1, 20 mg/kg dose PO, mean): 67852 ng·h/mL
AUCExtra (Day 1, 20 mg/kg dose PO, mean): 16.1%
AUMCExtra (Day 1, 20 mg/kg dose PO, mean): 39.6%
Cl_F (Day 1, 20 mg/kg dose PO, mean): 4.59 mL/min/kg
Tlast (Day 1, 20 mg/kg dose PO, mean): 24.0 h
Vz_F (Day 1, 20 mg/kg dose PO, mean): 2.99 L/kg
Animal body weight [2]: 8.38 kg and 8.88 kg
Clinical Observation [2]: None
Animal Body Weight, Mean (Day 1, Group 1, mean): 8.63 kg
Animal body weight [3]: 8.36 kg and 9.37 kg
Clinical Observation [3]: None
Animal Body Weight, Mean (Day 1, Group 2, mean): 8.87 kg
Animal body weight [4]: 9.24 kg and 8.79 kg
Clinical Observation [4]: None
Animal Body Weight, Mean (Day 1, Group 3, mean): 9.02 kg
Animal body weight [5]: 8.44 kg and 9.33 kg
Clinical Observation [5]: None
Animal Body Weight, Mean (Day 2, Group 1, mean): 8.89 kg
Animal body weight [6]: 9.63 kg and 8.65 kg
Clinical Observation [6]: None
Animal Body Weight, Mean (Day 2, Group 2, mean): 9.14 kg
Animal body weight [7]: 9.44 kg and 9.25 kg
Clinical Observation [7]: None
Animal Body Weight, Mean (Day 2, Group 3, mean): 9.35 kg
Animal body weight [8]: 8.45 kg and 9.29 kg
Clinical Observation [8]: None
Animal Body Weight, Mean (Day 3, Group 1, mean): 8.87 kg
Animal body weight [9]: 9.5 kg and 8.69 kg
Clinical Observation [9]: None
Animal Body Weight, Mean (Day 3, Group 2, mean): 9.10 kg
Animal body weight [10]: 9.32 kg and 8.96 kg
Clinical Observation [10]: None
Animal Body Weight, Mean (Day 3, Group 3, mean): 9.14 kg
Animal body weight [11]: 8.45 kg and 9.29 kg
Clinical Observation [11]: None
Animal Body Weight, Mean (Day 4, Group 1, mean): 8.87 kg
Animal body weight [12]: 9.43 kg and 8.6 kg
Clinical Observation [12]: None
Animal Body Weight, Mean (Day 4, Group 2, mean): 9.02 kg
Animal body weight [13]: 9.13 kg and 8.6 kg
Clinical Observation [13]: None
Animal Body Weight, Mean (Day 4, Group 3, mean): 8.87 kg
Plasma Concentration (Day 5, 5 mg/kg dose PO, time 1, individual animals): 1120 and 910
Plasma Concentration (Day 5, 5 mg/kg dose PO, time 1, mean): 1015
Plasma Concentration (Day 5, 5 mg/kg dose PO, time 2, individual animals): 1270 and 1040
Plasma Concentration (Day 5, 5 mg/kg dose PO, time 2, mean): 1155
Plasma Concentration (Day 5, 5 mg/kg dose PO, time 4, individual animals): 1180 and 878
Plasma Concentration (Day 5, 5 mg/kg dose PO, time 4, mean): 1029
Plasma Concentration (Day 5, 5 mg/kg dose PO, time 8, individual animals): 823 and 650
Plasma Concentration (Day 5, 5 mg/kg dose PO, time 8, mean): 737
Plasma Concentration (Day 5, 5 mg/kg dose PO, time 24, individual animals): 400
AUC0-last [14]: 11297 ng·h/mL
AUC(0-inf) [14]: 25554 ng·h/mL and 12279 ng·h/mL
AUCExtra [14]: 30.4% and 8.00%
AUMCExtra [14]: 65.9% and 26.4%
Cl_F [14]: 3.26 mL/min/kg and 6.79 mL/min/kg
Cmax [14]: 1040 ng/mL
MRT0-last [14]: 8.08 h
Tlast [14]: 24.0 h
T½ [14]: 13.5 h and 6.42 h
Vz_F [14]: 3.82 L/kg and 3.77 L/kg
AUC0-last (Day 5, 5 mg/kg dose PO, mean): 14544 ng·h/mL
AUCExtra (Day 5, 5 mg/kg dose PO, mean): 19.2%
AUMCExtra (Day 5, 5 mg/kg dose PO, mean): 46.2%
Cl_F (Day 5, 5 mg/kg dose PO, mean): 5.02 mL/min/kg
Tlast (Day 5, 5 mg/kg dose PO, mean): 24.0 h
Vz_F (Day 5, 5 mg/kg dose PO, mean): 3.79 L/kg
Basophils (Day 5, 5 mg/kg/day (mean), range 0.00-0.19): 0.08 10^3/μL
Eosinophils (Day 5, 5 mg/kg/day (mean), range 0.00-1.24): 0.38 10^3/μL
Monocytes (Day 5, 5 mg/kg/day (mean), range 0.11-1.08): 0.31 10^3/μL
Lymphocytes (Day 5, 5 mg/kg/day (mean), range 1.42-3.76): 2.72 10^3/μL
